For 5 compounds, IC50 results are on record in patent US20260022142A1, “MACROCYCLIC IMMUNOMODULATORS” (Bristol-Myers Squibb Company, priority 2022, published 2026).

Bridge positions count the residues as written; N and C are the ends. Square brackets hold non-standard residues; d marks the D form. Peptide text beside a SMILES is read from it. * marks the point of attachment. ξ: configuration not given here. ξPhe(4-guanidino) = N=C(N)Nc1ccc(CC(N)C(=O)O)cc1; Phe(3-CONH2) = NC(=O)c1cccc(C[C@H](N)C(=O)O)c1; Bip = N[C@@H](Cc1ccc(-c2ccccc2)cc1)C(=O)O; Cha = N[C@@H](CC1CCCCC1)C(=O)O; Ile(3ξ) = CCC(C)[C@H](N)C(=O)O; Thr(3ξ) = CC(O)[C@H](N)C(=O)O; 12Ado = NCCCCCCCCCCCC(=O)O; Carboxymethyl = O=C(O)C*; Orn = NCCC[C@H](N)C(=O)O; Aun = NCCCCCCCCCCC(=O)O; Dab = NCC[C@H](N)C(=O)O; AEEA = NCCOCCOCC(=O)O

The term IC50 denotes the concentration that inhibits the measured activity by half.

T1 sequence (Q15116 25-288): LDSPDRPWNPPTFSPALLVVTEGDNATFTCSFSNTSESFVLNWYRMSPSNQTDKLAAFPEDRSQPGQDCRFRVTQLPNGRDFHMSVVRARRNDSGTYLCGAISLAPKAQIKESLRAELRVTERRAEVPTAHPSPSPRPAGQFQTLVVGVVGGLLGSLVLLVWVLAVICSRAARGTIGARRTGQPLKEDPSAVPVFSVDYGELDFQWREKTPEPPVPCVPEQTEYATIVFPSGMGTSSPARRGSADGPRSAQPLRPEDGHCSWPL

This assay has as its target T1, PD-1/PD-L1 interaction (PE-labeled human PD-L1-Ig binding to Jurkat cell line over-expressing human PD-1) (Homo sapiens, UniProt Q15116).
T1 construct: expressed in transfected cells; host or cells: Jurkat
The assay can be described thus: Jurkat-PD-1 Cell Binding High-Content Screening Assay (CBA). The format is cell-based. Particulars: Jurkat cell line over-expressing human PD-1; PE-labeled PD-L1-Ig 20 nM final; read-out: Jurkat hPD1-PDL1 IC50. An outline of the steps:
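Jurkat cells stably over-expressing human PD-1 were seeded in DMEM with 10% fetal calf serum and pre-incubated with compound for 2 h at 37° C. PE-labeled human PD-L1-Ig was then added at 20 nM final for 1 hour, after which cells were fixed with paraformaldehyde, Hoechst-stained and imaged by high-content microscopy.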
For `CCC(C)[C@@H]1NC(=O)[C@H](Cc2ccc(-c3ccccc3)cc2)NC(=O)[C@H](C(C)C)NC(=O)[C@H](Cc2c[nH]c3ccccc23)NC(=O)[C@H](CC(=O)O)NC(=O)[C@H](Cc2ccc(OCC(=O)O)cc2)NC(=O)[C@H](C(C)O)NC(=O)CSC[C@@H](C(=O)N[C@@H](CCCN)C(=O)NCCCCCCCCCCCC(=O)O)NC(=O)[C@H](C(C)O)NC(=O)[C@H](C(C)C)NC(=O)[C@H](CC2CCCCC2)NC(=O)[C@H](CCN)NC(=O)[C@@H](CC(C)C)NC(=O)[C@H](CCCN)NC1=O` (stereo partly drawn) [Compound 3097] ({CH2CO}-[Thr(3ξ)]Y(Carboxymethyl)DWV[Bip][Ile(3ξ)][Orn][dL][Dab][Cha]V[Thr(3ξ)]C[Orn][12Ado]-OH; thioether N-14), the IC50 was found to be 22.8 nM.
With `CCC(C)[C@@H]1NC(=O)[C@H](Cc2ccc(-c3ccccc3)cc2)NC(=O)[C@H](C(C)C)NC(=O)[C@H](Cc2cccc(C)c2)NC(=O)[C@H](CC(=O)O)NC(=O)[C@H](Cc2ccc(OCC(=O)O)cc2)NC(=O)[C@H](C(C)O)NC(=O)CSC[C@@H](C(=O)N[C@@H](CCCN)C(=O)NCCCCCCCCCCCC(=O)O)NC(=O)[C@H](C(C)O)NC(=O)[C@H](C(C)C)NC(=O)[C@H](CC2CCCCC2)NC(=O)[C@H](CCN)NC(=O)[C@@H](CC(C)C)NC(=O)[C@H](CCCN)NC1=O` (some centres unmarked) [Compound 3098] the figure was 25.6 nM; with `CCC(C)[C@@H]1NC(=O)[C@H](Cc2ccc(-c3ccccc3)cc2)NC(=O)[C@H](C(C)C)NC(=O)[C@H](Cc2c[nH]c3ccccc23)NC(=O)[C@H](CC(=O)O)NC(=O)[C@H](Cc2ccc(OCC(=O)O)cc2)NC(=O)[C@H](CO)NC(=O)CSC[C@@H](C(=O)N[C@@H](CCCN)C(=O)NCCCCCCCCCCC(=O)O)NC(=O)[C@H](C(C)O)NC(=O)[C@H](C(C)C)NC(=O)[C@H](CC2CCCCC2)NC(=O)[C@H](CCN)NC(=O)[C@@H](CC(C)C)NC(=O)[C@H](CCCN)NC1=O` (stereo partly drawn) [Compound 3099] ({CH2CO}-SY(Carboxymethyl)DWV[Bip][Ile(3ξ)][Orn][dL][Dab][Cha]V[Thr(3ξ)]C[Orn][Aun]-OH; thioether N-14), 19.1 nM; with `CCC(C)[C@@H]1NC(=O)[C@H](CC2CCCCC2)NC(=O)[C@H](CCN)NC(=O)[C@@H](CC(C)C)NC(=O)[C@H](CCCN)NC(=O)[C@H](C(C)CC)NC(=O)[C@H](Cc2ccc(-c3ccccc3)cc2)NC(=O)[C@H](CC(C)C)NC(=O)[C@H](Cc2c[nH]c3ccccc23)NC(=O)[C@H](CC(=O)O)NC(=O)[C@H](Cc2ccc(OCC(=O)O)cc2)NC(=O)[C@H](Cc2cccc(C(N)=O)c2)NC(=O)CSC[C@@H](C(=O)N[C@@H](CC(N)=O)C(=O)NCCOCCOCC(=O)NCCCCCCCCCCC(=O)O)NC(=O)[C@H](CO)NC1=O` (stereo partly drawn) [Compound 3116] ({CH2CO}-[Phe(3-CONH2)]Y(Carboxymethyl)DWL[Bip][Ile(3ξ)][Orn][dL][Dab][Cha][Ile(3ξ)]SCN[AEEA][Aun]-OH; thioether N-14), 43.4 nM.
`CCC(C)[C@@H]1NC(=O)[C@H](CC2CCCCC2)NC(=O)[C@H](CCN)NC(=O)[C@@H](CC(C)C)NC(=O)[C@H](CCCN)NC(=O)[C@H](C(C)CC)NC(=O)[C@H](Cc2ccc(-c3ccccc3)cc2)NC(=O)[C@H](CC(C)C)NC(=O)[C@H](Cc2c[nH]c3ccccc23)NC(=O)[C@H](CC(=O)O)NC(=O)[C@H](Cc2ccc(OCC(=O)O)cc2)NC(=O)C(Cc2ccc(N=C(N)N)cc2)NC(=O)CSC[C@@H](C(=O)N[C@@H](CC(N)=O)C(=O)NCCOCCOCC(=O)NCCCCCCCCCCC(=O)O)NC(=O)[C@H](CO)NC1=O` (stereo partly drawn) [Compound 3117] ({CH2CO}-[ξPhe(4-guanidino)]Y(Carboxymethyl)DWL[Bip][Ile(3ξ)][Orn][dL][Dab][Cha][Ile(3ξ)]SCN[AEEA][Aun]-OH; thioether N-14): the IC50 stood at 160 nM.
